Several values for one entry are separate records, joined by “and”; a condition that tells them apart may be missing. Equal entries are not always repeated. Where two headings read alike, the source gives them in different places.
Legend:
Eimeria species = test system: Eimeria species; design: species or system commercial meat chickens; conditions: in vivo
[1] = in vivo
[2] = General safety in broilers reared to market weight by histology (Example 8); type: in vivo, broiler chickens; conditions: histology D42
Excerpt: This study evaluates the safety of IRP001 chloride in broilers through examination of histology.
The objective of this study was to test the general safety of IRP001 chloride in broilers reared to market weight by examination of histology.
The experiment consisted of the following treatments (1 pen per treatment, Table 54).
Birds were kept in a pen having an area of 4×10=40 ft^2, with clean wood shavings as bedding with a thickness of approximately 4 inches. The pen had 5 feet high side walls with a bottom 1 ½ feet being of solid wood to prevent bird migration.
The temperature of the building was monitored. Environmental conditions during the trial (temperature) were appropriate (optimum) to the age of the animals. Illumination was provided by fluorescent bulbs placed above the pens. The diets were provided ad libitum in one tube-type feeder per pen. From D0 until D7, feed was also supplied on a tray placed on the litter of each pen. Water was provided ad libitum from one Plasson drinker per pen.
Standard floor pen management practices were used throughout the experiment. Animals and housing facilities were inspected twice daily, observing and recording the general health status, constant feed and water supply as well as temperature, removing all dead birds, and recognizing unexpected events. Birds found dead during the study were noted on the Daily Mortality Record, and were not replaced. Pen number, the date of mortality, sex, weight, and diagnosis were recorded.
Day of hatch male Cobb chicks were obtained and ten male broiler chicks were placed in each pen. Accountabilities of all test animals and any extra birds were recorded on animal disposition form. The birds were sexed at the hatchery. The breeder flock history and vaccination record at the hatchery were recorded. Bird weights by pen were recorded on D0 and 42.
All weights were by pen. Treatment Starter feed was fed from D0 to 21. On D21, non-consumed Starter was weighed by pen and discarded. Grower feed was issued and fed until D35. On D35, non-consumed Grower was weighed by pen and discarded. Finisher feed was fed until D42. On D42, non-consumed Finisher was weighed by pen and discarded.
On the day of study completion (D42), five birds from each pen were humanly euthanized and upper, mid and lower gut sections plus liver lobe were collected and stored in neutral buffered formalin. Theses samples were shipped for analysis.

[3] = test system: Clostridium Perfringens (type A strain EHE-NE36); conditions: for median lesion scores: relative to nil-treatment; for small intestinal lesion scores: relative to nil treatment groups
[4] = Example 3: intestinal health scores based on Tierlynck et al. 2011 (dysbacteriosis, gross gut pathology); type: in vivo, commercial meat chickens; conditions: for Ballooning (total gut) score / Contents lower intestine score / Contents upper intestine score / Hyperaemia lower intestine score / Hyperaemia upper intestine score / Tonus lower intestine score / Tonus upper intestine score / Total Intestine health score (maximum 10) / Translucency lower intestine score / Translucency upper intestine score / Undigested particles in rectum score: reference feed: Salino, or Sal Zn Bac
Excerpt: […] General gut quality (looking for enteritis) was also visually assessed at that point.
This is a scoring system aimed at quantifying the level of dysbacteriosis present in a group of birds, attributing scores for certain grossly visible abnormalities. Higher total scores (maximum 10) reflect a higher level of dysbacteriosis, although this may be compromised if coccidiosis is present. For our purposes, the intestinal scores simply reflect gross gut pathology.

[5] = Feed palatability, feed and water consumption and bird productivity study (Example 2): feed intake, water intake, bodyweight, FCR; type: in vivo, broiler chickens
Excerpt: A follow-up study to determine the feed palatability, feed and water consumption and bird productivity following incorporation of a single formulation of IRP001 hemisulfate salt (unmasked) when offered to broiler chickens in-feed or in-water. The study explores the optimal treatment regime in terms of treatment start date.
Phase 1: On receipt, two hundred and seventy (270) day-old commercial broiler chickens were allocated sequentially as they are received into sixteen (16) individual floor pens, each of 16 or 17 birds, on Day 0.
Phase 2: On receipt, the ninety (90) day-old commercial broiler chickens were allocated sequentially as they are received into four (4) individual floor pens, each of 22 or 23 birds, on Day 22.
Feed intake, water intake, weight gain and mortality were used as outcome parameters.
Individual daily feed intake and individual daily water intake data by pen and then by treatment group were calculated for Phases 1 and 2 (and for the entire trial for the birds in Group/Pen 2, 15 and 16 that continue through both Phases) using figures for total feed and water provided each day to each pen divided by the number of birds in each pen. Where errors in weighing, feeding/watering or recording (or other unexplained losses of feed and water) had occurred means were adjusted by using the mean value for the same pen on the 1-2 days either side of the apparent error. Similarly, group mean bodyweights were calculated for Phase 1 using total weight/total no. birds for Day 0 and individual weights from Days 7, 14, 21, 28, 35 and 42. Total (individual) feed consumed was calculated per treatment and feed conversion ratios per treatment calculated using the expression: total (individual) feed/total (individual) weight gain. […]

Clostridium Perfringens = conditions: Necrotic Enteritis strain of C. perfringens
[6] = broilers in a production environment
[7] = NE challenge, IVP 0.1 g/L In-water, Groups 7, 8
[8] = NE challenge, IVP 0.2 g/kg In-feed, Group 11
[9] = NE challenge, IVP 1.0 g/L In-water, Groups 9, 10
[10] = NE challenge, IVP 2.0 g/kg In-feed, Group 12
[11] = Necrotic Enteritis, IVP water 1.0 g/L, line 'Mean' of Groups 9 and 10
[12] = Necrotic Enteritis, IVP water 1.0 g/L, per isolator, Groups 9 and 10
[13] = Nil Challenge, IVP water 1.0 g/L, line 'Mean' of Groups 3 and 4
[14] = Nil Challenge, IVP water 1.0 g/L, per isolator, Groups 3 and 4
[15] = Nil challenge, IVP 1.0 g/L In-water, Groups 3, 4

COc1ccc2cc3[n+](cc2c1OC)CCc1cc2c(cc1-3)OCO2 [IRP001 chloride, berberine chloride]
coccidiosis lesion scores in duodenum, jejunum and total gut (Eimeria species): highest lesion scores
oocyst counts in faeces (Eimeria species): numerically lower than the controls
total gut coccidiosis lesion scores (Eimeria species): significantly reduced total gut lesion scores
Feed per bird over period 0-14 days [1]: 485^B g/bird and 513^A g/bird and 512^A g/bird
Feed per bird over period 0-21 days [1]: 1186^B g/bird and 1227^AB g/bird and 1240^AB g/bird
Feed per bird over period 0-28 days [1]: 1957 g/bird and 2037 g/bird and 2049 g/bird
Feed per bird over period 0-42 days [1]: 4121 g/bird and 4247 g/bird and 4305 g/bird
Mean Weight Gain over period 0-7 days [1]: 113 gm and 121 gm and 119 gm
Mean Weight Gain over period 8-14 days [1]: 320^C gm and 334^A gm and 343^A gm
Mean Weight Gain over period 15-21 days [1]: 491^B gm and 517^A gm and 528^A gm
Mean Weight Gain over period 22-28 days [1]: 593 gm and 618 gm and 600 gm
Mean Weight Gain over period 29-42 days [1]: 1324 gm and 1341 gm and 1436 gm
Mean live weight at 0 days [1]: 41 gm
Mean live weight at 7 days [1]: 160 gm
Mean live weight at 21 days [1]: 923^C gm
growth rates throughout the experiment [1]: statistically similar to the control group
live weight to the end of the experiment (day 42) [1]: remained significantly lighter than all other groups
mean live weight at 14 days [1]: significantly lower weights than the negative control
gastrointestinal tract (GIT) histologic lesions [2, 6]: within normal limits
liver histologic lesions [2, 6]: within normal limits
Cumulative Pathology and Enteritis scores ([2]; versus control Treatment 1 Nil group): equal or lower than the control
Median Duodenal Lesion Score (0 absent to 4 severe) [3, 7]: 4
Median Ilial Lesion Score (0 absent to 4 severe) [3, 7]: 4
Median Jejunal Lesion Score (0 absent to 4 severe) [3, 7]: 4
Median Duodenal Lesion Score (0 absent to 4 severe) [3, 8]: 4
Median Ilial Lesion Score (0 absent to 4 severe) [3, 8]: 4
Median Jejunal Lesion Score (0 absent to 4 severe) [3, 8]: 4
Median Duodenal Lesion Score (0 absent to 4 severe) [3, 9]: 1
Median Ilial Lesion Score (0 absent to 4 severe) [3, 9]: 1
Median Jejunal Lesion Score (0 absent to 4 severe) [3, 9]: 1
Median Duodenal Lesion Score (0 absent to 4 severe) [3, 10]: 1
Median Ilial Lesion Score (0 absent to 4 severe) [3, 10]: 1
Median Jejunal Lesion Score (0 absent to 4 severe) [3, 10]: 1
Mortalities prior to autopsy ([3]; Necrotic Enteritis, IVP feed 0.2 g/kg, Group 11): 9
Mortalities prior to autopsy ([3]; Necrotic Enteritis, IVP feed 2 g/kg, Group 12): 2
Mortalities prior to autopsy ([3]; Necrotic Enteritis, IVP water 0.1 g/L, per isolator, Groups 7 and 8, listed as IVP): 10
Mortalities prior to autopsy [3, 11]: 0
Mortality % [3, 11]: 0%
Mortalities prior to autopsy [3, 12]: 0
Mortality % [3, 12]: 0%
Mortalities prior to autopsy [3, 13]: 0
Mortality % [3, 13]: 0%
Mortalities prior to autopsy [3, 14]: 0
Mortality % [3, 14]: 0%
Median Duodenal Lesion Score (0 absent to 4 severe) [3, 15]: 0
Median Ilial Lesion Score (0 absent to 4 severe) [3, 15]: 0
Median Jejunal Lesion Score (0 absent to 4 severe) [3, 15]: 0
translucency score in the upper intestine and undigested feed particles in the rectum ([4]; 21 days, higher two levels 0.3 and 0.1 g/kg, compared with controls and 0.03 g/kg): reduced translucency score in the upper intestine and the presence of undigested feed particles in the rectum
total intestinal health scores compared with the controls ([4]; 28 days, 0.3 g/kg in feed, P=0.06): approached significance

CC[C@@H](C(=O)[C@@H](C)[C@@H](O)[C@H](C)[C@@H]1O[C@@H]([C@@H](CC)C(=O)O)CC[C@@H]1C)[C@H]1O[C@]2(C=C[C@@H](O)[C@]3(CC[C@@](C)([C@H]4CC[C@](O)(CC)[C@H](C)O4)O3)O2)[C@H](C)C[C@@H]1C [salinomycin, Salinomycin]
Faecal oocyst count, Log10 Mean (Eimeria species): 4.72^B Log10 (Oocyst/g faeces)
Faecal oocyst count, Mean (Eimeria species): 72,046 Oocyst/g faeces
Feed per bird over period 0-14 days [1]: 497^AB g/bird
Feed per bird over period 0-21 days [1]: 1193^B g/bird
Feed per bird over period 0-28 days [1]: 2074 g/bird
Feed per bird over period 0-42 days [1]: 4298 g/bird
Mean Weight Gain over period 0-7 days [1]: 116 gm
Mean Weight Gain over period 8-14 days [1]: 330^BC gm
Mean Weight Gain over period 15-21 days [1]: 517^A gm
Mean Weight Gain over period 22-28 days [1]: 645 gm
Mean Weight Gain over period 29-42 days [1]: 1384 gm
Mean live weight at 0 days [1]: 41 gm
growth rates throughout the experiment [1]: statistically similar to the control group
mean live weight at 14 days [1]: 446^AB gm
Ballooning (total gut) score ([4]; Age 21 days): 0.10
Contents lower intestine score ([4]; Age 21 days): 0.45
Contents upper intestine score ([4]; Age 21 days): 0.65
Hyperaemia lower intestine score ([4]; Age 21 days): 0.00
Hyperaemia upper intestine score ([4]; Age 21 days): 0.15
Tonus lower intestine score ([4]; Age 21 days): 0.50
Tonus upper intestine score ([4]; Age 21 days): 0.50
Total Intestine health score (maximum 10) ([4]; Age 21 days): 3.55
Translucency lower intestine score ([4]; Age 21 days): 0.85
Translucency upper intestine score ([4]; Age 21 days): 0.20^B
Undigested particles in rectum score ([4]; Age 21 days): 0.15^B
Ballooning (total gut) score ([4]; Age 28 days): 0.80
Contents lower intestine score ([4]; Age 28 days): 0.00
Contents upper intestine score ([4]; Age 28 days): 1.00
Hyperaemia lower intestine score ([4]; Age 28 days): 0.20
Hyperaemia upper intestine score ([4]; Age 28 days): 0.80
Tonus lower intestine score ([4]; Age 28 days): 0.60
Tonus upper intestine score ([4]; Age 28 days): 0.80
Total Intestine health score (maximum 10) ([4]; Age 28 days): 5.20
Translucency lower intestine score ([4]; Age 28 days): 0.20
Translucency upper intestine score ([4]; Age 28 days): 0.40
Undigested particles in rectum score ([4]; Age 28 days): 0.40

berberine hemisulfate [IRP001 sulfate]
bodyweight ([5]; Phase 1+2, Pen 2 untreated vs 15/16 treated in-water Day 6-42, pair-wise comparison p<0.05): no significant difference
bodyweight ([5]; Phase 1, unmasked treatment via drinking water (1.0 g per L) over varying periods): did not appear to affect
bodyweight ([5]; Phase 2, treatment in-feed (2.0 g per kg of feed)): did not appear to affect
inhibition of growth at 62.5 μg/ml (Clostridium Perfringens; 62.5 μg/ml): partial inhibition of growth
MIC (Clostridium Perfringens; test agent Berberine sulfate, purity 98.0%): 125 µg/mL
median lesion scores ([3]; NE challenged broilers, 0.1 g/L in-water): no reduction in median lesion scores
Mortalities prior to autopsy ([3]; NE challenged broilers, 0.1 g/L in-water, versus nil-treatment): not significantly different
median lesion scores ([3]; NE challenged broilers, 0.2 g/kg in-feed): no reduction in median lesion scores
Mortalities prior to autopsy ([3]; NE challenged broilers, 0.2 g/kg in-feed, versus nil-treatment): not significantly different
small intestinal lesion scores ([3]; NE challenged broilers, 1.0 g/L in-water): substantial reduction in small intestinal lesion scores
Mortalities prior to autopsy ([3]; NE challenged broilers, 1.0 g/L in-water, relative to nil-treatment and low-dose groups): significant reduction in mortalities
small intestinal lesion scores ([3]; NE challenged broilers, 2.0 g/kg in-feed): substantial reduction in small intestinal lesion scores
Mortalities prior to autopsy ([3]; NE challenged broilers, 2.0 g/kg in-feed, relative to nil-treatment and low-dose groups): significant reduction in mortalities

Reference: patent US12225917B2 (priority 2017, dated 2025)
